The source of these data is patent publication US12286439B2, “Inhibitors of ERK nuclear translocation” (Yeda Research and Development Co. Ltd., priority 2018, dated 2025).

“Also recorded” adds a separate entry of the source.

Series [1] relates to A2185 and A2352 cells. The series is described as follows: Viability assay (methylene blue), two BRAF melanoma cells. The format is cell-based. The following applies: for cytotoxicity at 1 µM: both melanoma cell lines, read-out: reduction of viability. The method, then:
FIGS. 10A, 10B and 10C present data from screening the 20 analogs of Compound Z2 (“C-compounds”) showing three particularly active anti-proliferative compounds. […] A2185 and A2352 cells were grown in 1% FCS containing DMSO (0.1%), EPE peptide, Compound Z56, Compound Z2 or C-compounds (10 μM), for 72 hours. Compounds were categorized according to activity: (1) active, below 40%; (2) moderate activity, below 80%; (3) not active, above 80%. […] A2185 and A2352 cells were grown in 1% FCS containing DMSO (0.1%), EPE peptide (10 μM), compounds Z56, Z2 or selected C-compounds (3 μM), for 72 hours. Empty squares/circles represent individual data points of proliferation. Full squares/circles indicate average proliferation of 2 independent experiments in triplicate±SE. Bold horizontal line defines arbitrary activity threshold of activity below 40%. FIG. 10C presents dose response curves of active C-compounds compounds. A2185 and A2352 were grown in 1% FCS media containing DMSO (0.1%), EPE peptide, Z56, Z2 (10 μM) or compounds C17, C22 and C23 (0.1-10 μM), for 72 hours. […] Cell viability was measured by staining with methylene blue. Data presented as percentage of DMSO control. Bar graphs represent average of 2 independent experiments done in triplicates ±SE.
FIG. 13 presents a graph showing the effect of analogs of Compound C17 (“D-compounds”) on cell viability at a concentration of 10 μM. A2185 and A2352 cells were grown in 1% FCS media containing DMSO (0.1%) EPE peptide (10 μM), Compounds Z56, Z2, C17 (10 μM) as controls, and D-Compounds (10 μM), for 72 hours. Viable cells were measured by staining with methylene blue. Bar graphs represent average of 2 independent experiments done in triplicates. Data presented as percentage of DMSO proliferation ±standard error.
FIG. 14 presents a graph showing the effect of analogs of Compound C17 (“D-compounds”) on cell viability at a concentration of 1 μM. A2185 and A2352 cells were grown in 1% FCS media containing DMSO (0.1%), EPE peptide (10 μM), Compounds Z56, Z2 and C17 (1 and 10 μM) as controls, and D-compounds (1 μM), for 72 hours. Viable cells were measured by staining with methylene blue. Bar graphs represent average of 2 independent experiments done in triplicates. Data presented as percentage of DMSO proliferation ±standard error.
Cells were seeded at low confluence into 24, 48 or 96-well plates in complete medium. After 24 hours, medium was replaced by 1% FCS (fetal calf serum) containing appropriate treatments. Fresh medium containing the same agents was replaced every day. After 72 or 96 hours of treatment, cells were fixed with 4% formaldehyde overnight at 23° C., washed once with 0.1 M borate buffer (pH 8.5) for 10 minutes, and stained with of 1% methylene blue in 0.1 M borate buffer (pH 8.5) for 30 minutes. Excess stain was washed out with distilled water. Color was extracted by adding 0.1 M HCl (3 hours, 23° C.), and absorbance measured at 595 nm in an ELISA reader. For time course experiments, attached cells were fixed and measured at 0, 24, 48, 72 and 96 hours. For dose-response experiments, cells were treated with indicated concentrations of reagent, fixed and stained after 72 hours as above.
The ability of the selected compounds to reduce cell viability of two BRAF melanoma cells (A2185 and A2352) was evaluated. Initially, all compounds were assayed at a relatively high concentration of 10 μM.

The test system of series [2] is LOX-IMVI melanoma cells. Nature of the series: Dose-response analysis (IC50), LOX-IMVI cells. The following applies: Homo sapiens. In kind it is cell-based. The method, then: (§1) FIG. 15A presents dose response curves of compounds C17, D3, D11 and D14 on 8 cancer cells. Five melanoma cell lines (A2185, A2352, A2024, A2058 and LOX-IMVI), HeLa, HCT-116 and PC3 cells were grown in 1% FCS media containing either DMSO (0.1%), EPE peptide (10 μM), or Compounds C17, D3, D11, D14 at the indicated concentrations, for 72 hours. Viable cells were quantified by staining with methylene blue. Data presented as percentage of DMSO control ±SE of triplicates. […] IC50 values were calculated by interpolation in the curves in FIG. 15A. […] Bar graphs represent average viability respect to DMSO control ±SE of triplicates.
(§2) Cell Viability (IC50) Assay:
(§3) Cells were seeded at a density of 4000 cells per well into 96-well plates in complete medium. After 24 hours, medium was replaced by 1% FCS (fetal calf serum) containing appropriate treatments. Fresh medium containing the same agents was replaced every day. After 96 hours, cell viability was assessed using the CellTiter-Glo reagent (Promega; Madison, WI). IC50 values were determined using GraphPad Prism.

In series [3] the test system is ERK1/2 nuclear translocation. Nature of the series: Determination of ERK1/2 localization by fluorescence microscopy after TPA stimulation. Particulars: for inhibition of stimulated ERK1/2 nuclear translocation: 1 μM, 2 h. In kind it is cell-based. The method, then:
Determination of Protein Localization by Fluorescence Microscopy:
Indicated cells were seeded on coverslips (coated with 0.001% w/v poly-L-lysine or not, depending on the cell line) at 50% confluency. After the indicated treatment, cells were fixed in 4% paraformaldehyde/PBS for 20 minutes on an ice surface, permeabilized with 0.1% Triton X-100/PBS for 5 minutes at 23° C., then blocked in 2% BSA/PBS for 30 minutes at 23° C. The fixed cells were sequentially incubated with appropriate antibodies (in 2% BSA/PBS, 1.5 hour), washed 3 times with PBS^−/−, and followed by incubation with either Cy-2-conjugated or rhodamine-conjugated secondary antibodies (1:200) and with DAPI ([…]; 1:100) in 2% BSA/PBS for 45 minutes. Slides were analyzed and photographed by a fluorescence microscope (Olympus BX51, ×40). Background correction, and contrast adjustment of raw data images were performed using Photoshop (Adobe, CA, USA).
The effect of Z56 was compared with that of the inhibitory effect of EPE peptide on nuclear translocation of ERK1/2.
The effects of the compounds on ERK1/2 nuclear translocation were evaluated in three cell lines (HeLa cells and two melanoma cell lines, A2185 and A2352), by treating the cells with each compound for two hours, and determining nuclear translocation using fluorescent anti-ERK antibodies, according to procedures described hereinabove.

Series [4] has as its system melanoma cells (A2185, A2352, A2024, A2058 and LOX-IMVI). Nature of the series: Dose-response analysis (IC50 assay), melanoma cells. The following applies: calculated by interpolation in the dose response curves. The format is cell-based. The method, then:
as §1, §2, §3

In series [5] the test system is anti-tubercular activity (unknown mechanism). Particulars: Ananthan et al., Tuberculosis (Edinb) 2009; cited from earlier work.
Series [6] deals with mammalian cells. Particulars: Ananthan et al., Tuberculosis (Edinb) 2009; cited from earlier work.
Series [7] deals with PC3 cells. Nature of the series: Dose-response analysis, PC3 cells. In kind it is cell-based. Particulars: dose response, 72 hours. The method, then:
as §1, §2, §3

The subject of series [8] is A2058 cells. Nature of the series: Dose-response analysis, A2058 cells. Particulars: dose response, 72 hours. The format is cell-based. The procedure: as §1, §2, §3
Series [9] deals with A2185, A2352, A2024, A2058, LOX-IMVI, HeLa, HCT-116 and PC3 cells. The series is described as follows: Dose-response analysis (IC50 assay) in eight cancer cell lines. Particulars: for potency in reducing cell viability relative to Compound D14 / potency in reducing cell viability relative to Compound C17: 72 hours; for potency in reducing cell viability relative to Compound D14: in seven of the eight cell lines; for potency in reducing cell viability relative to Compound C17: in six of the eight tested cell lines. In kind it is cell-based. The procedure:
as §1
Cell Viability (IC50) Assay: […]

The mark [10] stands for this setting: TPA 100 nM, 15 minutes, A2185 cells.

The term viability denotes a read-out of living cells in per cent, often relative to untreated cells. A word on the IC50: it is the concentration that gives 50% inhibition. On to `O=S1(=O)C=CC2ON=C(c3ccc(C(F)(F)F)cc3)C21` (centres unmarked) [Compound C17], for which the “cell viability at lower concentration” value in [1] (3 μM, 72 hours, 1% FCS) is listed as “consistently strong anti-viability effect”. Also, in [1] (10 μM, 72 hours, 1% FCS, active below 40%, moderate below 80%, not active above 80%, read-out: cell viability (percentage of DMSO control)), the viability at 10 µM was less than 40%. Besides, in series [1] (0.1-10 μM, 72 hours, 1% FCS), the “cell viability, dose response” value was “dose dependent manner; also recorded: as potent in reducing the viability of A2352 cells”. Moreover, the “activity in SAR summary of FIGS. 10A-10C (cell viability)” value in [1] (comparison with Compound Z2 or named analog) is on record as “surprisingly superior to the ester group of Compound Z2”. The “concentration at which activity is already exhibited” value in [1] (dose response 0.1-10 μM, 72 hours) was determined as 0.3 µM. For the same compound, the figures for the concentration for half-maximal inhibition (IC50) in series [1] (potency summarised from viability results of Example 6), in series [2] and in series [4] were roughly 1000 nM, roughly 20 nM and 400 to 1300 nM, respectively. The “relative potency in blocking nuclear accumulation of ERK1/2” value in series [3] (10 μM, 2 hours, A2185 cells) is “more potent than Compounds C22 and C23”. Moreover, the “nuclear accumulation of ERK1/2 upon TPA stimulation” value in [3] (10 μM, 2 hours, TPA 100 nM, 15 minutes, A2185 and A2352 cells) is on record as “inhibited”. The “anti-tubercular activity in high-throughput screening” value in series [5] is recorded as “hit”. In addition, the “cytotoxic activity in mammalian cells” value in series [6] is “without presenting cytotoxic activity”. For the same compound, the “viability of PC3 cells” value in series [7] is “significantly decreased”.
With `O=S1(=O)C=CC2ON=C(c3cc(Cl)cc(Cl)c3)C21` (centres unmarked) [Compound D3], the cytotoxicity at 1 µM in series [1] (72 hours, 1% FCS) was no more than 90%. Further, in series [3] (setting [10]), the “inhibition of stimulated ERK1/2 nuclear translocation” value (“inhibition” for short) was “convincing activity; also recorded: most potent of the three tested compounds”. Besides, in series [4], the IC50 is 40 to 250 nM. The “reducing the viability of A2058 cells” value in [8] is reported as “strong effect”. In addition, in series [9], the “potency in reducing cell viability relative to Compound D14” value is reported as “slightly more potency than Compound D14” and the “potency in reducing cell viability relative to Compound C17” value was “significantly more potency than Compound C17”. Also, the “selectivity (pattern of effect across cell types compared with EPE peptide)” value (“selectivity” for short) in series [9] (eight cancer cell lines) was “more selective than Compounds C17 and D14”. Besides, the “viability of PC3 cells” value in series [7] is “did not”.
In the case of `O=S1(=O)C=CC2ON=C(c3ccc(Cl)c(Cl)c3)C21` (centres unmarked) [Compound D11], the cytotoxicity at 1 µM in series [1] (72 hours, 1% FCS) is no more than 90%. Besides, the “inhibition” value in series [3] (setting [10]) was “convincing activity”. For the same compound, the IC50 in series [4] was 40 to 250 nM. Also, in series [8], the “reducing the viability of A2058 cells” value is given as “strong effect”. In addition, in series [9], the “potency in reducing cell viability relative to Compound D14” value was “slightly more potency than Compound D14” and the “potency in reducing cell viability relative to Compound C17” value is “significantly more potency than Compound C17”. In addition, the “selectivity” value in [9] (eight cancer cell lines) was “more selective than Compounds C17 and D14”. In series [7], the “viability of PC3 cells” value is on record as “did not”.
`O=S1(=O)C=CC2ON=C(c3c[nH]c4ccccc34)C21` (centres unmarked) [Compound D14]: the cytotoxicity at 1 µM in [1] (72 hours, 1% FCS) was no more than 90%. The “inhibition” value in [3] (setting [10]) was “convincing activity”. For the same compound, in [9], the “potency in reducing cell viability relative to Compound C17” value was “significantly more potency than Compound C17”. Moreover, in series [9] (eight cancer cell lines), the “IC50 values compared to Compound C17” value is listed as “significantly lower IC50 values compared to Compound C17” and the “selectivity” value is “less selective”. For the same compound, in [7], the “viability of PC3 cells” value was “significantly decreased”.
